pIC50, pKi: −log10 of the molar value. Where “and” joins values, the source holds several entries; their conditions need not be identical. Equal entries are not always repeated.
What was measured:
[1] = molecular target: Glutamate receptor ionotropic, NMDA 2B (Homo sapiens, UniProt Q05586+Q13224); test: Inhibition of NMDA receptor NR2B subunit (unknown origin)
[2] = molecular target: Dual specificity tyrosine-phosphorylation-regulated kinase 1A (Homo sapiens, UniProt Q13627); test: Inhibition of DYRK1A (unknown origin)
Cholinesterase = Cholinesterase (Homo sapiens, UniProt P06276); test: Inhibition of BuChE (unknown origin)
Cholinesterase, sequence (P06276 whole entry): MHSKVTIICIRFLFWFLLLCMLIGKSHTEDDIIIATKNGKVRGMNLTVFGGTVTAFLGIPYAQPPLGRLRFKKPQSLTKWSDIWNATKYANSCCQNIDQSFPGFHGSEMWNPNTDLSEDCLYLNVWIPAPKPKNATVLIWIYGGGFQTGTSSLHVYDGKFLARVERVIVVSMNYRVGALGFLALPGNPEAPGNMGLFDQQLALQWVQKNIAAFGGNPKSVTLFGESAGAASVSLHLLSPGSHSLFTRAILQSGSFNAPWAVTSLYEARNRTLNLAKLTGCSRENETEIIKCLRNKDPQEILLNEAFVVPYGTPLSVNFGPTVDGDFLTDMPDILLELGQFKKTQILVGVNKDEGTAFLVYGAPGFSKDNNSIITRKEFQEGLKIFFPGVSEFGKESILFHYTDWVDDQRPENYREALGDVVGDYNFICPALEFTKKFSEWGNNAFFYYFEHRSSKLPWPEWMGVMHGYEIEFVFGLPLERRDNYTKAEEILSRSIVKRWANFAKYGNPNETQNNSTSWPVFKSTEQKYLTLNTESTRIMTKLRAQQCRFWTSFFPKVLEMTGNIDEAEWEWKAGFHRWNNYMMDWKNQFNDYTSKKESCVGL

Acetylcholinesterase [3] = molecular target: T1, Acetylcholinesterase (Homo sapiens, UniProt P22303); test: Inhibition of AChE (unknown origin)
T1 sequence (P22303 whole entry): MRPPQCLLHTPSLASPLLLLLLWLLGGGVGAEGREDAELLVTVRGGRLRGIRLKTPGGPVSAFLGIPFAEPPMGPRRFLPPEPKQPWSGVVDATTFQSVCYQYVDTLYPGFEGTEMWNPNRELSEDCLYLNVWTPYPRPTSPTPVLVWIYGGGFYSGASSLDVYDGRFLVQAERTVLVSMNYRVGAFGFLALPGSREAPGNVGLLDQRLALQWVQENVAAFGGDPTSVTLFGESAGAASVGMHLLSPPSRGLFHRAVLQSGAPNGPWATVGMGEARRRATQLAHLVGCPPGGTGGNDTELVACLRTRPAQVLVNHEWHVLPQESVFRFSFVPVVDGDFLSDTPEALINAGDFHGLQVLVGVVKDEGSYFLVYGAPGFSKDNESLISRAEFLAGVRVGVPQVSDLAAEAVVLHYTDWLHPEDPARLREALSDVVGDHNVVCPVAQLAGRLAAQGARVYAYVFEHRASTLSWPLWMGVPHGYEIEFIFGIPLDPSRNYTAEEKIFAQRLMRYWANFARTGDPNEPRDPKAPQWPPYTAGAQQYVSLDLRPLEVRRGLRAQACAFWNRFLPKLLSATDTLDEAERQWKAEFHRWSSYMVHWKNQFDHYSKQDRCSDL

[4] = molecular target: GABA-A receptor; anion channel; test: Displacement of [3H]flunitrazepam from GABAA (unknown origin ) receptor by radioligand binding assay; type: protein-complex assay, Homo sapiens
[5] = molecular target: T2, Amine oxidase [flavin-containing] A (Homo sapiens, UniProt P21397); test: Inhibition of MAO-A (unknown origin)
T2 sequence (P21397 whole entry): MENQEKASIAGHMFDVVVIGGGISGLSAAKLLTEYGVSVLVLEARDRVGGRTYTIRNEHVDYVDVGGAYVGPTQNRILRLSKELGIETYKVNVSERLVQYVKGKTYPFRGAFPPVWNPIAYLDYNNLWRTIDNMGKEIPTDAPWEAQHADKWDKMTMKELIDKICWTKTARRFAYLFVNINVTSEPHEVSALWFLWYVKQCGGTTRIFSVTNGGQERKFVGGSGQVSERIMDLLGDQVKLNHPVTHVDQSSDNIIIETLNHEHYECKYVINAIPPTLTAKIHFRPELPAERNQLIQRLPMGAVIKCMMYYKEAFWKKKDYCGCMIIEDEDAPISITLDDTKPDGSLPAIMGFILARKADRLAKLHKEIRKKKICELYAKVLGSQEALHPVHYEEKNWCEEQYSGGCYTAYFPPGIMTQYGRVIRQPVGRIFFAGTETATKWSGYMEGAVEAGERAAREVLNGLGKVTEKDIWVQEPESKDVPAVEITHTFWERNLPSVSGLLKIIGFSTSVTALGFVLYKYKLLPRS

Acetylcholinesterase [6] = molecular target: T1, Acetylcholinesterase; test: Inhibition of AChE (unknown origin) by Ellman's method
Acetylcholinesterase [7] = molecular target: T1, Acetylcholinesterase; test: Inhibition of AChE (unknown origin) incubated for 40 mins by Ellman's method
[8] = molecular target: T3, 5-hydroxytryptamine receptor 2B (Homo sapiens, UniProt P41595); test: Binding affinity to 5-HT2BR (unknown origin) assessed as inhibition constant
T3 sequence (P41595 whole entry): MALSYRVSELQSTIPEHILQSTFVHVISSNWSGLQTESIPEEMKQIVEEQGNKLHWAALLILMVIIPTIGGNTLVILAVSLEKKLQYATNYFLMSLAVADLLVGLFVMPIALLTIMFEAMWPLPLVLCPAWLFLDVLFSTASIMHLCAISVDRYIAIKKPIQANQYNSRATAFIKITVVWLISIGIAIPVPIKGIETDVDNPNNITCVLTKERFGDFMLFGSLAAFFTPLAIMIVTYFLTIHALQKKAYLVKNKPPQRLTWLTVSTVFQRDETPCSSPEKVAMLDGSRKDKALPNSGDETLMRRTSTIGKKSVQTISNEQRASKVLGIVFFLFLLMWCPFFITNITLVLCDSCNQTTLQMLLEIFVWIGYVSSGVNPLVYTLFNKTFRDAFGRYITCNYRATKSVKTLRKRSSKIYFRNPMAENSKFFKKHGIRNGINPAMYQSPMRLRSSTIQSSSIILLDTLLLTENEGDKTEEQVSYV

[9] = molecular target: 5-hydroxytryptamine receptor 5A (Homo sapiens, UniProt P47898); test: Binding affinity to 5-HT5AR (unknown origin) assessed as inhibition constant
5-hydroxytryptamine receptor 5A, sequence (P47898 whole entry): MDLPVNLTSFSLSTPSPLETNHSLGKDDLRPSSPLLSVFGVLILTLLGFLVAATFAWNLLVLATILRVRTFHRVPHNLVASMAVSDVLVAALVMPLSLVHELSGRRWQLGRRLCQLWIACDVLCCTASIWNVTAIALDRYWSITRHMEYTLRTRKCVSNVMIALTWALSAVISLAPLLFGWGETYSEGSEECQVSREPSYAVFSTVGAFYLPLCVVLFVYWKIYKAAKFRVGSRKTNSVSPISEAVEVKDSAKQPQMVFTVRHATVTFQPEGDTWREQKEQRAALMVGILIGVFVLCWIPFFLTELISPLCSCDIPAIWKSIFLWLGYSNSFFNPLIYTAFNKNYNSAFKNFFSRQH

[10] = molecular target: Gamma-aminobutyric acid receptor subunit alpha-4 (Homo sapiens, UniProt P48169); test: Binding affinity to human recombinant GABAA alpha4 receptor assessed as inhibition constant incubated for 1 hrs by liquid scintillation counting analysis
Gamma-aminobutyric acid receptor subunit alpha-4, sequence (P48169 whole entry): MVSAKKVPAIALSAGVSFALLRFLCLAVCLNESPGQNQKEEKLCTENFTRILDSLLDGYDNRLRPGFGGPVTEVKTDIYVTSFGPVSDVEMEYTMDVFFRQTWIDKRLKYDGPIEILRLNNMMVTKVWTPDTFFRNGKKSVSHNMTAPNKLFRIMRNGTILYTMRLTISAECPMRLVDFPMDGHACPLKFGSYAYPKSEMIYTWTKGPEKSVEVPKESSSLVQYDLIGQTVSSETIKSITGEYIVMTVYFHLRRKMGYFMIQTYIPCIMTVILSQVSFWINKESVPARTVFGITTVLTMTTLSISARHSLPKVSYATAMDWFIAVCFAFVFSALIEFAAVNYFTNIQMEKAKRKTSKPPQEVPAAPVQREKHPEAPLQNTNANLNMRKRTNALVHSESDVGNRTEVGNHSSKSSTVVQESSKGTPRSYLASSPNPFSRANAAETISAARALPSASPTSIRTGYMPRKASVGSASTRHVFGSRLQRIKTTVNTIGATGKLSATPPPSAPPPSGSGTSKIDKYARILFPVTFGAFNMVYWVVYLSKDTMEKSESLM

[11] = molecular target: T4, Gamma-aminobutyric acid receptor subunit alpha-1 (Homo sapiens, UniProt P14867); test: Binding affinity to human recombinant GABAA alpha1 receptor assessed as inhibition constant incubated for 1 hrs by liquid scintillation counting analysis
T4 sequence (P14867 whole entry): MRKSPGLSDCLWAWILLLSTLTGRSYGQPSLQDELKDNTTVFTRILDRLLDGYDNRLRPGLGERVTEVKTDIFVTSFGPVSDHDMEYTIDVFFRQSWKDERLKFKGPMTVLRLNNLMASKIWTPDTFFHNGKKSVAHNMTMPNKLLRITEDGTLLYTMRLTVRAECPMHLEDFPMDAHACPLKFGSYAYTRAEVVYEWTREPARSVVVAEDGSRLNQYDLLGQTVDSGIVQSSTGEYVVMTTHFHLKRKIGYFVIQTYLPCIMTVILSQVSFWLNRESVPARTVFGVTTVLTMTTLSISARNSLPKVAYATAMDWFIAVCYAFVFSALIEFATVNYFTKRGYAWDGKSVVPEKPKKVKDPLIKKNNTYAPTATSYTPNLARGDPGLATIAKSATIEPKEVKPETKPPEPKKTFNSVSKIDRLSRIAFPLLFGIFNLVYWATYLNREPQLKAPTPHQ

[12] = molecular target: T5, Gamma-aminobutyric acid receptor subunit alpha-2 (Homo sapiens, UniProt P47869); test: Binding affinity to human recombinant GABAA alpha2 receptor assessed as inhibition constant incubated for 1 hrs by liquid scintillation counting analysis
T5 sequence (P47869 whole entry): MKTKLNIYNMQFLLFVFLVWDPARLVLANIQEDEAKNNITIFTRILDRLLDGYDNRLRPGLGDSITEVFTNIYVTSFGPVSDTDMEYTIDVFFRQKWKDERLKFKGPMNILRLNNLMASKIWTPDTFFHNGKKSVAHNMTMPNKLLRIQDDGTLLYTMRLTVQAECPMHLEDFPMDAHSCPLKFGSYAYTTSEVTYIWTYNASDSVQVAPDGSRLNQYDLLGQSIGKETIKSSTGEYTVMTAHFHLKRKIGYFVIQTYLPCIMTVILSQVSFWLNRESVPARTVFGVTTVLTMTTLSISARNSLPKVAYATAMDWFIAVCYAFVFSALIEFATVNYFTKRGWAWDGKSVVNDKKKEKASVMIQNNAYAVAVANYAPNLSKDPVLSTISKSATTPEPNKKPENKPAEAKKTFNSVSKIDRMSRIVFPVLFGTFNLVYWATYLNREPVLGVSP

[13] = molecular target: Gamma-aminobutyric acid receptor subunit alpha-6 (Homo sapiens, UniProt Q16445); test: Binding affinity to human recombinant GABAA alpha6 receptor assessed as inhibition constant incubated for 1 hrs by liquid scintillation counting analysis
Gamma-aminobutyric acid receptor subunit alpha-6, sequence (Q16445 whole entry): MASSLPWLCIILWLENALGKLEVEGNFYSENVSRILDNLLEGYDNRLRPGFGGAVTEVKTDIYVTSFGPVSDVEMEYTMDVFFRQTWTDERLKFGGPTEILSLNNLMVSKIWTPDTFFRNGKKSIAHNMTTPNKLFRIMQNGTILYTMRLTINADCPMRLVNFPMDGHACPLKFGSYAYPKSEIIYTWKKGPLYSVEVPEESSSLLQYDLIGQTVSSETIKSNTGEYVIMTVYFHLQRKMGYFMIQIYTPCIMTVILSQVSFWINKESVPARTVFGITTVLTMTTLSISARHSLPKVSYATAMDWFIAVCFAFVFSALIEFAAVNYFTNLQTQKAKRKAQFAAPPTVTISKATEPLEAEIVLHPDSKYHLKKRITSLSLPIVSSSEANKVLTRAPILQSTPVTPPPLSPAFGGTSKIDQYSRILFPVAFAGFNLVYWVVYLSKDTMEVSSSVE

[14] = molecular target: T6, Gamma-aminobutyric acid receptor subunit alpha-5 (Homo sapiens, UniProt P31644); test: Binding affinity to human recombinant GABAA alpha5 receptor assessed as inhibition constant incubated for 1 hrs by liquid scintillation counting analysis
T6 sequence (P31644 whole entry): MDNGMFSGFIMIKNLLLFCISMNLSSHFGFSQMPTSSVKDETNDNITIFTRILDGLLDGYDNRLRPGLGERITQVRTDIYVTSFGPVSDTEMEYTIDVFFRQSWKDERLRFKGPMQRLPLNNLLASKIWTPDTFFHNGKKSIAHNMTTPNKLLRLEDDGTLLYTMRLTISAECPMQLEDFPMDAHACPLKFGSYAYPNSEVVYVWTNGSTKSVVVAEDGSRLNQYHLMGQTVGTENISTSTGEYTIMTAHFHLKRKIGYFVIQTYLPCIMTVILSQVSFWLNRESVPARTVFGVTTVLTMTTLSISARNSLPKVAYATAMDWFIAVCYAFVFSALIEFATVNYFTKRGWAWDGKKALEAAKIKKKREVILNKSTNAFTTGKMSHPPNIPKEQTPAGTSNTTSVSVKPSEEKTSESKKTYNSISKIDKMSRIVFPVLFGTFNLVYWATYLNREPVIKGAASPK

[15] = molecular target: T7, Gamma-aminobutyric acid receptor subunit alpha-3 (Homo sapiens, UniProt P34903); test: Binding affinity to human recombinant GABAA alpha3 receptor assessed as inhibition constant incubated for 1 hrs by liquid scintillation counting analysis
T7 sequence (P34903 whole entry): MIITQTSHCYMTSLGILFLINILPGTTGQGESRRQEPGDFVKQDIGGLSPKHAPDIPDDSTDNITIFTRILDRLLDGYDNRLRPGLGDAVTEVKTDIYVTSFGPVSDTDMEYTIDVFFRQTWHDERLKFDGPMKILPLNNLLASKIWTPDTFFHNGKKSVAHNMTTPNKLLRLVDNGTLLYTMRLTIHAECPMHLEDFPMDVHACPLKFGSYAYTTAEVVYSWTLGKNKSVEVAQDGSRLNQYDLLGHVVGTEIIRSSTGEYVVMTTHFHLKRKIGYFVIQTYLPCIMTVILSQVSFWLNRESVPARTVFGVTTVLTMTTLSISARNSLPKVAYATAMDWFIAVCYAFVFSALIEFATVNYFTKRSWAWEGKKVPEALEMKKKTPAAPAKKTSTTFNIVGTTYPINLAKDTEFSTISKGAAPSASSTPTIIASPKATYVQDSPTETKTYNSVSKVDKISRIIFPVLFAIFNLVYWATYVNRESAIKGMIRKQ

[16] = molecular target: cGMP-specific 3',5'-cyclic phosphodiesterase (Homo sapiens, UniProt O76074); test: Binding affinity to PDE5 (unknown origin) assessed as inhibition constant
[17] = molecular target: T3, 5-hydroxytryptamine receptor 2B; test: Binding affinity to 5-HT2B (unknown origin) assessed as equilibrium binding constant
[18] = molecular target: 5-hydroxytryptamine receptor 2A (Rattus norvegicus, UniProt P14842); test: Displacement of [3H]-ketanserin from rat 5-HT2A expressed in mouse NIH/3T3 cells assessed as inhibition constant by Cheng-Prusoff equation analysis; type: cell-based
5-hydroxytryptamine receptor 2A, sequence (P14842 whole entry): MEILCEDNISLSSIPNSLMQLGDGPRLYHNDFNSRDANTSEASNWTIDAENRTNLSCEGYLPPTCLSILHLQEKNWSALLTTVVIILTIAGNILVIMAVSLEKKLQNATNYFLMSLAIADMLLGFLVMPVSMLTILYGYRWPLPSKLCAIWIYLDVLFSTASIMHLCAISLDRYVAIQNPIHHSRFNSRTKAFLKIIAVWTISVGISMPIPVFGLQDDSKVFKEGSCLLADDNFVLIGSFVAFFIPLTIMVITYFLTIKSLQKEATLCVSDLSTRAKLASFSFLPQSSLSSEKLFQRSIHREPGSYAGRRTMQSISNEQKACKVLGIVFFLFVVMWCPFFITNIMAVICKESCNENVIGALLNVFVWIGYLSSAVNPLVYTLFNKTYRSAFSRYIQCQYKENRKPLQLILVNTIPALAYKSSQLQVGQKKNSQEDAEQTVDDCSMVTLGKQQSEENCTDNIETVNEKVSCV

[19] = molecular target: 5-hydroxytryptamine receptor 2B (Rattus norvegicus, UniProt P30994); test: Displacement of [3H]-ketanserin from rat 5-HT2B expressed in mouse NIH/3T3 cells assessed as inhibition constant by Cheng-Prusoff equation analysis; type: cell-based
[20] = molecular target: T8, 5-hydroxytryptamine receptor 2C (Homo sapiens, UniProt P28335); test: Binding affinity to 5-HT2C (unknown origin) assessed as inhibition constant
T8 sequence (P28335 whole entry): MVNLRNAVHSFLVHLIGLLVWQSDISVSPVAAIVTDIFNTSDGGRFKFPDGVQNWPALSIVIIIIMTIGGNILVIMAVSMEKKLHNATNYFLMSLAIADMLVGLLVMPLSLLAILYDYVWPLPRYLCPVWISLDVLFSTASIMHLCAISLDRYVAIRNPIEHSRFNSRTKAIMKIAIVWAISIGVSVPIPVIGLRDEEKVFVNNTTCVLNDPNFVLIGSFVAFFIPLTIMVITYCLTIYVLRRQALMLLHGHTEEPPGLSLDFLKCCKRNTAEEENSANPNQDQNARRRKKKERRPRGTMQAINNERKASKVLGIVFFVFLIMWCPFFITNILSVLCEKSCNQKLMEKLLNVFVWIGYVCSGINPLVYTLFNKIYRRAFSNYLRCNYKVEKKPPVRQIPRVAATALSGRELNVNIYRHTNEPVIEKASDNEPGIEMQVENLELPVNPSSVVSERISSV

Glutamate receptor ionotropic, NMDA 2B, sequence (Q13224 whole entry, one chain of several): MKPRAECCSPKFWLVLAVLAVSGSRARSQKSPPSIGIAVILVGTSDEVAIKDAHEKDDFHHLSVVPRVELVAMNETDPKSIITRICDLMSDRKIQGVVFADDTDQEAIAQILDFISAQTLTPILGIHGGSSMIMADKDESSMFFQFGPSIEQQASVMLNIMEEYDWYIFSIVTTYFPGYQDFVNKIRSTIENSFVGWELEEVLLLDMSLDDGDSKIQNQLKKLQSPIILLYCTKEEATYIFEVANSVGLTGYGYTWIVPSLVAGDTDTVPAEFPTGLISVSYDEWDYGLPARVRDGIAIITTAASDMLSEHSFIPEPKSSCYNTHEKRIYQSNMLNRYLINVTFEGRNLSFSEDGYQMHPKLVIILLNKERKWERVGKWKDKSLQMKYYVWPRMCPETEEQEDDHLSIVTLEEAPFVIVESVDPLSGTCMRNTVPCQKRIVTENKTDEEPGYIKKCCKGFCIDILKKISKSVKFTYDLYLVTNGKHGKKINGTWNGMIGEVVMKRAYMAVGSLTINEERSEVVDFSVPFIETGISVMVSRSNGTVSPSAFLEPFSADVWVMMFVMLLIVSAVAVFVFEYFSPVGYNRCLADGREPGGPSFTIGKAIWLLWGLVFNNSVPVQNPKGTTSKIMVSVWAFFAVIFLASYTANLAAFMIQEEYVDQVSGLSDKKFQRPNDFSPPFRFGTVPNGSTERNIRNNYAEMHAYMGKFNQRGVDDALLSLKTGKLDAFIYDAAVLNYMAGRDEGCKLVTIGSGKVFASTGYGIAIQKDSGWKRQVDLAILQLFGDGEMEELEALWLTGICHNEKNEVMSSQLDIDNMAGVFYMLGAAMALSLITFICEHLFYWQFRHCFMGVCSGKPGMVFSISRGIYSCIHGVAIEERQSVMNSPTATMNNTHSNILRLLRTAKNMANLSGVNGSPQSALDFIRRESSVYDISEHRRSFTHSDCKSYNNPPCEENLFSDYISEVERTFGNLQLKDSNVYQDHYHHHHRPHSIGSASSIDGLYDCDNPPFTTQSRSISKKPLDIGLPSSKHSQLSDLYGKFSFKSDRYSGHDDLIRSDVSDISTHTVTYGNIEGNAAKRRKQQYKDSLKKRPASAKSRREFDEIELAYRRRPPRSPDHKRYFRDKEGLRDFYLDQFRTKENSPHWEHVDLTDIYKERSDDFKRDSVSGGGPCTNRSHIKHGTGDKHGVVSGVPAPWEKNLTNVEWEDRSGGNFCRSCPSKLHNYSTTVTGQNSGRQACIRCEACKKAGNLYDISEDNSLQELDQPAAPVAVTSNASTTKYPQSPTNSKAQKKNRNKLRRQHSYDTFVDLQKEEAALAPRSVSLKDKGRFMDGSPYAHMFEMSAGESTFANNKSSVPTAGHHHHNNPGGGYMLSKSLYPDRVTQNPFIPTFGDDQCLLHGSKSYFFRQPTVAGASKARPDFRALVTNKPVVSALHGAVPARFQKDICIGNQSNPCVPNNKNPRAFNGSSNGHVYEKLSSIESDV

O=C1CCC[C@@H]2c3[nH]c4ccccc4c3C[C@@H](CO)N12
pIC50 [1]: 4.52

c1ccc2c(c1)[nH]c1cnccc12 [NORHARMANE]
pIC50 [2]: < 5.74
pIC50 (Cholinesterase): < 4.40
pIC50 (Acetylcholinesterase [3]): < 4.40
pIC50 [4]: 5.80

Oc1ccc2[nH]c3c(c2c1)CCN(CCCCc1ccccc1)C3
pIC50 [1]: 6.85

Cc1nccc2c1[nH]c1ccccc12 [HARMAN]
pIC50 [2]: < 5.74
pIC50 (Cholinesterase): < 5.00
pIC50 [5]: 7.54
pIC50 (Acetylcholinesterase [3]): < 5.00
pIC50 [4]: 5.60

Cn1c2ccccc2c2cc[n+](-c3ccc(Br)cc3Br)cc21
pIC50 (Acetylcholinesterase [6]): 6.96
pIC50 (Acetylcholinesterase [7]): 6.96

c1ccc2cc(-c3nccc4c3[nH]c3ccccc34)ccc2c1
pKi [8]: 5.82
pKi [9]: 5.82

Cc1ccc2c(c1)c1cc[n+](-c3ccccc3)cc1n2C
pIC50 (Acetylcholinesterase [6]): 6.38
pIC50 (Cholinesterase): 4.77
pIC50 (Acetylcholinesterase [3]): 6.38

CC(C)(C)OC(=O)c1cc2c(cn1)[nH]c1ccccc12
pKi [10]: 6.00
pKi [11]: 9.15
pIC50 [4]: 9.00
pKi [12]: 7.82
pKi [13]: < 5.30
pKi [14]: 6.96
pKi [15]: 7.72

CC(C)CCn1c2c(c3c(O)cc(O)cc31)CCn1c-2nc2ccccc2c1=O
pKi [16]: 7.07

COc1ccc(CC2NCCc3c2[nH]c2cc(C)c(C)cc32)cc1OC (stereo not drawn)
Kb [17]: < 0.3 nM and 0.08 nM
pKi [18]: 8.30
pKi [19]: 9.70

Oc1ccc2c3c([nH]c2c1)CN(CCCCc1ccccc1)CC3
pIC50 [1]: 7.30

C=CC(=O)N1CCc2c(n(CCCCN3CCN(c4ccccc4OC)CC3)c3ccccc23)C1
pKi [18]: 7.36

COc1ccc2[nH]c3c(-c4cn(C)c5ccccc45)nccc3c2c1
pKi [8]: 7.00
pKi [9]: 7.00
pKi [20]: 6.70

c1ccc(C[C@@H]2NCCc3c2[nH]c2ccccc32)cc1
pIC50 [1]: 4.57

COC(=O)c1cc2c(cn1)[nH]c1ccccc12 [BETA-CCM]
pKi [10]: 6.00
pKi [11]: 8.70
pIC50 [4]: 9.00
pKi [12]: 8.15
pKi [13]: 5.36
pKi [14]: 7.36
pKi [15]: 7.14

Nc1cccc(-c2ccc(C(=O)N3CCc4c([nH]c5ccccc45)C3c3ccc4c(c3)OCO4)o2)c1 (stereo not drawn)
pKi [16]: 7.29

c1ccc(-c2nccc3c2[nH]c2ccccc23)cc1
pKi [8]: 5.85
pKi [9]: 5.85

Oc1ccc2[nH]c3c(-c4c[nH]c5ccccc45)nccc3c2c1
pKi [8]: 6.77
pKi [9]: 6.77
pKi [20]: 6.77

COCc1c(C(=O)OC(C)C)ncc2[nH]c3ccc(OCc4ccccc4)cc3c12 [ABECARNIL]
pKi [10]: 5.92
pKi [11]: 9.00
pIC50 [4]: 9.00
pKi [12]: 8.70
pKi [13]: 5.19
pKi [14]: 8.30
pKi [15]: 8.40

COc1cccc2[nH]c3c(c12)CCN=C3C
pKi [20]: 7.19

Brc1cccc2[nH]c3c(c12)CCNC3
pKi [18]: > 6.74

COc1ccc(-c2cnc(N3CC(=O)c4c([nH]c5ccccc45)C3c3ccc4c(c3)OCO4)nc2)cc1OC (stereo not drawn)
pKi [16]: 8.05

O=C(c1ccc(-c2ccc([N+](=O)[O-])cc2)o1)N1CCc2c([nH]c3ccccc23)C1c1ccc2c(c1)OCO2 (stereo not drawn)
pKi [16]: 7.19

C[n+]1ccc2c(c1)[nH]c1ccccc12 [NORMELINONINE F]
pIC50 (Acetylcholinesterase [6]): 5.39
pIC50 (Cholinesterase): 6.10

c1ccc2c(-c3nccc4c3[nH]c3ccccc34)c[nH]c2c1
pKi [8]: 6.77
pKi [9]: 6.77
pKi [20]: 6.77

CCOC(=O)[n+]1ccc2c([nH]c3cc(OC)ccc32)c1C
pIC50 (Acetylcholinesterase [6]): 6.60
pIC50 (Cholinesterase): 5.82
pIC50 (Acetylcholinesterase [3]): 6.60

CC(C)n1c2ccccc2c2cc[n+](-c3ccccc3)cc21
pIC50 (Acetylcholinesterase [6]): 5.51
pIC50 (Cholinesterase): 4.43
pIC50 (Acetylcholinesterase [3]): 6.27

Oc1ccc(CCCN2CCc3c([nH]c4ccccc34)C2)cc1
pIC50 [1]: 7.06

COc1cccc2[nH]c3c(c12)CCN=C3
pKi [20]: 7.19

Nc1ccc(-c2ccc(C(=O)N3CCc4c([nH]c5ccccc45)C3c3ccc4c(c3)OCO4)o2)cc1 (stereo not drawn)
pKi [16]: 7.19
